Test results taken from patent US10517862B2, “Fused heterocyclic compound derivative and application thereof” (NHWA PHARMA. CORPORATION, priority 2015, dated 2019).
Like-named read-outs stand apart in the source and are kept apart here.

Columns and labels:
[1] = tested on: D2 receptor; test: D2 receptor binding assay (3H-Spiperone, rat striatum membrane); settings: test compound final concentration 10^−5 M; 3H-Spiperone; rat striatum membrane
Method: Preparation of D2 Membrane
Rats were decapitated on ice. […] The weight of the homogenized tubes were adjusted using a balance, and centrifugation was conducted. […] Centrifugation was conducted.
(§1) Materials for the Receptor Binding Assay

[2] = target: T1, 5HT1A receptor (Rattus norvegicus, UniProt P19327); test: 5HT1A receptor binding assay (3H-8-OH-DPAT, rat striatum membrane); settings: test compound final concentration 10^−5 M; 3H-8-OH-DPAT; rat striatum membrane; read-out: 5HT1A Inhibition rate (%)
T1 construct: Rats were decapitated on ice; from tissue; host or cells: rat brain striatum
T1 sequence (P19327 1-422): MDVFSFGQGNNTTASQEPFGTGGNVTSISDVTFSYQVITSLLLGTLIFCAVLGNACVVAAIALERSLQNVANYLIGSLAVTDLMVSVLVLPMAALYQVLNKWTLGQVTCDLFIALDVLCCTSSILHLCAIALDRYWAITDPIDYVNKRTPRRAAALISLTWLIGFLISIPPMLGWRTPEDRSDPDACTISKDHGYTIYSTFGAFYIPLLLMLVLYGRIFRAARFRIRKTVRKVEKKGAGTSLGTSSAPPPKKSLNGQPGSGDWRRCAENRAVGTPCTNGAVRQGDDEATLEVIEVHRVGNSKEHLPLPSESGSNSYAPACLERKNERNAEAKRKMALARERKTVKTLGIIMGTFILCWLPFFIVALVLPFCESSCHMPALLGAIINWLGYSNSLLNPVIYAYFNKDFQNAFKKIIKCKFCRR
Method: Preparation of 5HT1A Membrane
Rats were decapitated on ice. […] Incubation at 37° C. was conducted for 10 min. […] Centrifugation was conducted at 12000 rpm, 4° C. for 20 min. […] Centrifugation was conducted and repeated 3 times.
as §1

[3] = target: T2, D3 receptor (Homo sapiens, UniProt P35462); test: D3 receptor assay ([3H]-Spiperone, HEK-293 cells); type: binding; settings: test compound final concentration 10 μmol/L; [3H]-Spiperone; HEK-293 cells; read-out: D3 Inhibition rate (%)
T2 construct: expressed in transfected cells; host or cells: HEK-293
Method: Then the cells were centrifuged at 1000 rpm for 5 min, the supernatant was discarded, and the cell pellets was collected and stored in a −20° C. fridge for reservation. It was re-suspended with Tris-Cl (pH 7.4) when the assay was performed.
Tris was divided into aliquots by Genetimes Technology Inc.
Competitive binding test for receptors: 20 μl of each of the test compounds and 20 μl of the radioactive ligand together with 160 μl of the receptor proteins were added into the reaction tubes, and the final concentrations of the test compound and the positive drug were all 10 μmol/L. After 50 min of incubation in 30° C. water bath, the tubes were immediately moved to ice bath to terminate the reactions. GF/C glass fiber filter papers were used for rapid sucking filtration on a Millipore cell sample collector, 3 ml of elution buffer (50 mM Tris-HCl, PH 7.4) was applied for 3 times, and microwave was applied for 4-5 min for drying. The filter paper was moved into 0.5 ml centrifuge tube, and 500 μl of liposoluble scintillation cocktail was added. The tubes were allowed to stand still for over 30 min in dark, and the intensities of radioactivity were measured by a counter.

[4] = target: T3, 5HT2C receptor (Rattus norvegicus, UniProt P08909); test: 5HT2C receptor binding assay ([3H]-mesulergine, rat striatum membrane); settings: test compound final concentration 10^−5 M; [3H]-mesulergine; rat striatum membrane; read-out: 5HT2C Inhibition rate (%)
T3 construct: from tissue; host or cells: rat brain striatum
T3 sequence (P08909 33-460): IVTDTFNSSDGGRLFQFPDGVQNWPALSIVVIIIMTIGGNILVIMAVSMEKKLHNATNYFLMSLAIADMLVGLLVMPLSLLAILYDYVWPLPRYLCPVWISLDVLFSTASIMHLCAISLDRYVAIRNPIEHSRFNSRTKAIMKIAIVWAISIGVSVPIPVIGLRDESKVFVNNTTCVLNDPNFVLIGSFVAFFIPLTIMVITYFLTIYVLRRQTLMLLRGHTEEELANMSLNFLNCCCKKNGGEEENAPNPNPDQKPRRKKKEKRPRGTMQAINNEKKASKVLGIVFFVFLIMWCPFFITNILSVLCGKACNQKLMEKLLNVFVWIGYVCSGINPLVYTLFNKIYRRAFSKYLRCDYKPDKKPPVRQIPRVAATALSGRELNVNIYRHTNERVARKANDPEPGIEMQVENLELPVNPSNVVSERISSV
Method: Preparation of 5HT2C Membrane
Rats were decapitated on ice. […] Centrifugation was conducted.
as §1

[5] = tested on: α1 norepinephrine receptor; test: α1 norepinephrine receptor binding assay (3H-prazosin, rat cortex membrane); settings: test compound final concentration 10^−5 M; 3H-prazosin; rat cortex membrane
Source text: Preparation of Receptor Membrane of Norepinephrine
α1 Norepinephrine Receptor Binding Assay

[6] = tested on: mice of Kunming breed; test: MK-801 induced high activity in mice; type: in vivo; settings: Mus musculus, 1.5 h, po, MK-801 0.1 mg/kg ip, spontaneous activities in 90 min
Method: Example 54: MK-801 Induced High Activity—the In Vivo Anti-Schizophrenia Activity of the Compounds
Healthy mice of Kunming breed (with half male and half female, (20±2) g) were provided by Qinglongshan Animal Cultivation Center, Nanjing.
Ascorbic acid was provided by Sinopharm Chemical Reagent Co. Ltd.
MK-801 was produced by Sigma Company, USA; the formulation method: 0.1% vitamin C was used to formulate a 1 mg/ml solution.
Test positive drugs: haloperidol, clozapine, risperidone, olanzapine, aripiprazole, ziprasidone, quetiapine.
Tween 80, with the concentration of 10%.
Mice with qualified body weight were selected, and randomly divided into blank group, model group, positive control group (risperidone group) and drug group. […] 1 h after the administration, 0.1% concentration of ascorbic acid was intraperitoneally injected to the blank group at 0.1 ml/10 g; and the model group, the positive control group (30 min) and the drug group were intraperitoneally injected the MK-801 solution at 0.1 mg/kg. Subsequently, the spontaneous activities of the mice of each group in 90 min were measured.

[7] = tested on: mice of Kunming breed; test: Apomorphine induced clambering assay of mice; type: in vivo; settings: for ED50: Mus musculus, read-out: Apomorphine induced clambering (ED50, po, mg/kg)
Method: Healthy mice of Kunming breed (KM) (male, with body weight of 18-22 g) were provided by Qinglongshan Animal Cultivation Center, Nanjing.
Apomorphine provided by Sigma Company was dissolved in 0.9% NaCl (containing 0.1% vitamin C) before use, and was freshly formulated before use.
Vitamin C, F20061113, was provided by Sinopharm Chemical Reagent Co. Ltd.
Sodium chloride injection, H32026305, was provided by Xuzhou No. 5 Pharmaceutical Factory Co. Ltd.
Instruments: self-made clambering cage, chronograph.
Procedures: apomorphine induced clambering assay of mice
After 5 min of adaptation, the behavior of the mice at 10-11, 20-21, and 30-31 min after the injection of apomorphine were observed and scored. Scoring criteria: the behavior of 4 paws on the floor was scored as 0; the behavior of 2 forepaws on the cage was scored as 1; and the behavior of 4 paws on the cage was scored as 2.

[8] = Catalepsy assay in mice; settings: both sexes, Kunming, mouse, in vivo, po, bar test at 30, 60, 90 min
Method: Healthy mice of Kunming breed (with half male and half female, (22±2) g) were provided by Qinglongshan Animal Cultivation Center, Nanjing.
Instruments: self-made bar-grabbing apparatus: stainless steel bar in mice box, which was 0.3 cm in diameter and […].
Corresponding solvent double-distilled water was administered intragastrically to the negative control group and the model group, corresponding positive drugs were administered intragastrically to the positive drug groups (a small amount of acetic acid was first added and then double-distilled water was added when dissolving), and corresponding dosages of compounds were administered intragastrically to the compound groups for each dosage, with the volume for intragastric administration as 0.1 ml/10 g. At 30 min, 60 min, 90 min after the intragastric administration, the two forepaws of the mice were gently placed on the bars (which were 20 cm in length, 0.3 cm in diameter, and 5.5 cm above the bench), and the hindpaws of the animals were placed on the bottom of the box. The durations of the mice to maintain the posture with the two forepaws on the bars were recorded, and 30 s of spasticity without moving was considered as the positive response. In the case the forepaws of the mice were not put down persistently, the observation was terminated at 60 s. The numbers of animals with positive response in each of the compound dosage groups were counted.

[9] = in vivo; settings: both sexes, mouse, in vivo, po
[10] = target: 5HT2A receptor (Rattus norvegicus, UniProt P14842); test: 5HT2A receptor binding assay ([3H]-Ketanserin, rat striatum membrane); settings: read-out: 5HT2A Inhibition rate (%)
[11] = target: Histamine H1 receptor (Rattus norvegicus, UniProt P31390); test: Histamine H1 receptor binding assay (3H-pyrilamine, rat cerebellum membrane); settings: read-out: H1 Inhibition rate (%)
Method: The supernatant was discarded to give pellets, and homogenate F was added again to the pellets for washing. Centrifugation was conducted and repeated 3 times.
(2) 100 μL of membrane preparation was added into each reaction tube.

[12] = tested on: KM mice; test: in vivo
[13] = mice, po, apomorphine 1 mg/kg sc 1 hour after administration
[14] = single intragastric administration in mice, read-out: LD50 (po, mg/kg)
[15] = both, KM, mouse, in vivo, po, 7 days
[16] = single intragastric administration in mice

T2 sequence (P35462 whole entry): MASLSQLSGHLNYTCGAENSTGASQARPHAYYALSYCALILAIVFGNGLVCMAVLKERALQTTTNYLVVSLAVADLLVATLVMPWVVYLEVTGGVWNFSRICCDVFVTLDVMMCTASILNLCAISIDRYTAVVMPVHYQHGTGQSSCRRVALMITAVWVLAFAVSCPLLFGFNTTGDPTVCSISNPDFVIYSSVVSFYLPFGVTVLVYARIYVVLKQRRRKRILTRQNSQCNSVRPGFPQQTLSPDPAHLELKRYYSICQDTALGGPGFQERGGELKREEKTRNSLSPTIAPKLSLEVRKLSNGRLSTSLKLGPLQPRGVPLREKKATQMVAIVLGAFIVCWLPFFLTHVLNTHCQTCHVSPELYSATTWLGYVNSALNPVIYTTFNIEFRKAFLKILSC
Chain of Histamine H1 receptor (P31390 whole entry): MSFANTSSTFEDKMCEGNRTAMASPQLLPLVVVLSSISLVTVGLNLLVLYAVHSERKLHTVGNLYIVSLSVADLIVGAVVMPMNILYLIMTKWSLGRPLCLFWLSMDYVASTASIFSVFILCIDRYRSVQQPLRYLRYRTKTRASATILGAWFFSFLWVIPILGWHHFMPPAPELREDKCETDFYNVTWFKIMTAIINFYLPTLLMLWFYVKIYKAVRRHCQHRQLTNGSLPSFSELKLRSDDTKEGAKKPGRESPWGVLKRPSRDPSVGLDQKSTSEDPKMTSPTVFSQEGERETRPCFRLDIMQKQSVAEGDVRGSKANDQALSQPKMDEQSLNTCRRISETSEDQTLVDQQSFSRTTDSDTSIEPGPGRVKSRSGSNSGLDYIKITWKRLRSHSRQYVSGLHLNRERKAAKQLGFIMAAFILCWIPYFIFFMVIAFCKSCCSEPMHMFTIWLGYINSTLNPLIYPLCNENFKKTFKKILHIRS
Chain of 5HT2A receptor (P14842 whole entry): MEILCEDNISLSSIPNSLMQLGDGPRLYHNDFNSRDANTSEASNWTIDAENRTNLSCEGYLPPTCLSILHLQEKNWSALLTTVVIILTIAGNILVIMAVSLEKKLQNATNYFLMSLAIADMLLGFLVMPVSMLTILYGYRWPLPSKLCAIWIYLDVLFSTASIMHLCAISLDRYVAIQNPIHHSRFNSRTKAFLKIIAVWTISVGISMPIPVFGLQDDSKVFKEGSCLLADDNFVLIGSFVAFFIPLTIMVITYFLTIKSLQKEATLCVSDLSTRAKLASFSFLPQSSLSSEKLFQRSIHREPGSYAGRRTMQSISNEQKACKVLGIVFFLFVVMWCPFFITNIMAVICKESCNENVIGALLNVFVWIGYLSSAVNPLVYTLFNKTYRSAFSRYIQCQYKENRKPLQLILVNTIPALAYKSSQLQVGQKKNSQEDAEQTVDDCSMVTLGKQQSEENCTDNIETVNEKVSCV

| SMILES | D2 Inhibition rate (%) [1] | inhibition at 10 µM [2] | inhibition at 10 µM [3] | inhibition at 10 µM [4] | α1 Inhibition rate (%) [5] | ED50 [6] | ED50 [7, 13] | inhibition at 10 µM [10] | inhibition at 10 µM [11] | further results |
| --- | --- | --- | --- | --- | --- | --- | --- | --- | --- | --- |
| O=C(CCN1CCC(c2noc3cc(F)ccc23)CC1)c1cc2c3c(c1)CCC(=O)N3CCC2 [Compound 2] | 94.33% | 93.9% | 74.9% | 63.9% | 68.75% | 0.2 mg/kg | 0.11 mg/kg | 97.9% | 47.9% | ED50 [8]: 3.8 mg/kg; LD50 at 7 days [9, 14]: > 2000 mg/kg |
| O=C1CCc2cc(CCCCN3CCC(c4noc5cc(F)ccc45)CC3)cc3c2N1CCC3 [Compound 7] | 94.32% | 99.2% | 98.1% | 62.2% | 63.69% | 0.92 mg/kg | 0.44 mg/kg | 99.4% | 46.4% | ED50 [8]: 24.1 mg/kg; LD50 at 7 days [9, 14]: > 2000 mg/kg |
| O=C(CCCN1CCC(c2noc3cc(F)ccc23)CC1)c1cc2c3c(c1)CCN3C(=O)CC2 [Compound 15] | 103.83% | 103% | 99.9% | 52.7% | 43.69% | 0.21 mg/kg | 0.12 mg/kg | 104% | 34% | ED50 [8]: 50 mg/kg; LD50 at 7 days ([9]; KM): > 2000 mg/kg |
| O=C(CCCN1CCC(c2noc3cc(F)ccc23)CC1)c1cc2c3c(c1F)CCN3C(=O)CC2 [Compound 21] | 92.01% | 93.3% | 90.1% | 67.9% | 46.78% | – | – | 91.1% | 54.3% | – |
| O=C(CCCN1CCC(c2noc3cc(F)ccc23)CC1)c1cc2c3c(c1F)CCC(=O)N3CC2 [Compound 22] | 93.12% | 91.2% | 91.2% | 76.3% | 53.46% | – | – | 90.2% | 45.2% | – |
| O=C1CCc2ccc(OCCCCN3CCN(c4cccc(Cl)c4Cl)CC3)cc2N1 [aripiprazole] | – | – | – | – | – | 0.12 mg/kg | 0.66 mg/kg | – | – | LD50 (po, mg/kg) [12, 15]: 93 mg/kg |
| CN1CCN(C2=Nc3cc(Cl)ccc3Nc3ccccc32)CC1 [clozapine] | – | – | – | – | – | 2.28 mg/kg | 17.9 mg/kg | – | – | LD50 (po, mg/kg) [12, 16]: 150 mg/kg |
| O=C(CCCN1CCC(O)(c2ccc(Cl)cc2)CC1)c1ccc(F)cc1 [haloperidol] | – | – | – | – | – | 7.42 mg/kg | 0.1 mg/kg | – | – | LD50 (po, mg/kg) [12, 16]: 20 mg/kg |
| Cc1cc2c(s1)Nc1ccccc1N=C2N1CCN(C)CC1 [olanzapine] | – | – | – | – | – | – | – | – | – | ED50 ([7]; 1 h): 0.11 mg/kg |
| OCCOCCN1CCN(C2=Nc3ccccc3Sc3ccccc32)CC1 [quetiapine] | – | – | – | – | – | 10.1 mg/kg | 2.02 mg/kg | – | – | LD50 (po, mg/kg) [12, 15]: 800 mg/kg |
| Cc1nc2n(c(=O)c1CCN1CCC(c3noc4cc(F)ccc34)CC1)CCCC2 [risperidone] | – | – | – | – | – | – | – | – | – | ED50 ([7]; 1 h): 0.015 mg/kg; effect on apomorphine induced clambering symptoms (in words) ([7]; compared with the model group, mice): effectively improve |
| O=C1Cc2cc(CCN3CCN(c4nsc5ccccc45)CC3)c(Cl)cc2N1 [ziprasidone] | – | – | – | – | – | 0.56 mg/kg | 0.37 mg/kg | – | – | LD50 at 7 days [9, 14]: > 2000 mg/kg |
